Reference: the CheMixHub ionic liquid set

Experiment: xn = mol fraction of the nth substance listed

C[C@H](N)C(=O)[O-].C[N+](C)(C)CCO + CCO
100 kPa
Conditions	viscosity [mPa·s]
287.88 K, x1 = 1	4500
287.97 K, x1 = 0.6071	550
288 K, x1 = 0.2012	17.5
288.02 K, x1 = 0.1013	5.6
288.04 K, x1 = 0.8027	1750
288.05 K, x1 = 0.3782	89
288.05 K, x1 = 0.5527	359
288.05 K, x1 = 0.7056	1079
288.09 K, x1 = 0.2903	42
288.1 K, x1 = 1	5100
288.12 K, x1 = 0.894	2875
289.23 K, x1 = 0.6071	520
289.25 K, x1 = 0.3782	88
289.26 K, x1 = 0.2012	17
289.26 K, x1 = 0.8027	1625
289.28 K, x1 = 0.1013	5.3
289.28 K, x1 = 0.5527	339
289.29 K, x1 = 0.7056	990
289.31 K, x1 = 0.2903	40.6
289.34 K, x1 = 0.894	2592
289.96 K, x1 = 1	3700
290.21 K, x1 = 1	4300
290.48 K, x1 = 0.6071	470
290.5 K, x1 = 0.3782	85
290.51 K, x1 = 0.2012	16.4
290.51 K, x1 = 0.8027	1464
290.52 K, x1 = 0.1013	5.1
290.52 K, x1 = 0.5527	315
290.52 K, x1 = 0.7056	900
290.53 K, x1 = 0.2903	39.2
290.55 K, x1 = 0.894	2319
291.71 K, x1 = 0.6071	430
291.72 K, x1 = 0.2012	15.7
291.72 K, x1 = 0.3782	80
291.73 K, x1 = 0.1013	4.9
291.73 K, x1 = 0.2903	37.6
291.73 K, x1 = 0.5527	291
291.73 K, x1 = 0.7056	820
291.73 K, x1 = 0.8027	1311
291.74 K, x1 = 0.894	2072
292.02 K, x1 = 1	3052
292.32 K, x1 = 1	3520
292.91 K, x1 = 0.1013	4.7
292.91 K, x1 = 0.3782	76
292.91 K, x1 = 0.6071	394
292.92 K, x1 = 0.2012	15
292.92 K, x1 = 0.2903	36
292.92 K, x1 = 0.5527	268
292.92 K, x1 = 0.7056	740
292.92 K, x1 = 0.8027	1180
292.92 K, x1 = 0.894	1858
294.08 K, x1 = 1	2544
294.09 K, x1 = 0.1013	4.5
294.09 K, x1 = 0.2012	14.3
294.09 K, x1 = 0.2903	34.4
294.09 K, x1 = 0.6071	360
294.1 K, x1 = 0.3782	73
294.1 K, x1 = 0.5527	248
294.1 K, x1 = 0.7056	670
294.1 K, x1 = 0.8027	1065
294.1 K, x1 = 0.894	1669
294.41 K, x1 = 1	2896
295.27 K, x1 = 0.1013	4.4
295.27 K, x1 = 0.2012	13.8
295.27 K, x1 = 0.2903	33.1
295.27 K, x1 = 0.3782	70
295.27 K, x1 = 0.5527	231
295.27 K, x1 = 0.6071	333
295.27 K, x1 = 0.7056	620
295.27 K, x1 = 0.8027	970
295.27 K, x1 = 0.894	1510
296.14 K, x1 = 1	2140
296.45 K, x1 = 0.1013	4.2
296.45 K, x1 = 0.2012	13.2
296.45 K, x1 = 0.2903	31.7
296.45 K, x1 = 0.3782	66
296.45 K, x1 = 0.5527	216
296.45 K, x1 = 0.6071	308
296.45 K, x1 = 0.7056	560
296.45 K, x1 = 0.8027	880
296.45 K, x1 = 0.894	1365
296.48 K, x1 = 1	2402
297.63 K, x1 = 0.1013	3.97
297.63 K, x1 = 0.2012	12.6
297.63 K, x1 = 0.2903	30.2
297.63 K, x1 = 0.3782	63
297.63 K, x1 = 0.5527	200
297.63 K, x1 = 0.6071	283
297.63 K, x1 = 0.7056	520
297.63 K, x1 = 0.8027	800
297.63 K, x1 = 0.894	1234
298.2 K, x1 = 1	1806
298.54 K, x1 = 1	2000
298.81 K, x1 = 0.1013	3.81
298.81 K, x1 = 0.2012	12.1
298.81 K, x1 = 0.2903	29.1
298.81 K, x1 = 0.3782	61
298.81 K, x1 = 0.5527	188
298.81 K, x1 = 0.6071	263
298.81 K, x1 = 0.7056	480

CC(=O)[O-].CC[n+]1ccn(C)c1 + CCO + O
viscosity [mPa·s], 101 kPa
Conditions	298.15 K	313.15 K	328.15 K	343.15 K
x2 = 0.1044, x3 = 0.8465	3.75	2.34	1.6	1.15
x2 = 0.1179, x3 = 0.7408	9.38	5.57	3.58	2.49
x2 = 0.2002, x3 = 0.3044	31.9	18.16	11.45	7.86
x2 = 0.2242, x3 = 0.3101	28	16.28	10.41	7.22
x2 = 0.2489, x3 = 0.6021	8.23	5.06	–	–
x2 = 0.2635, x3 = 0.6879	3.8	2.41	1.64	1.19
x2 = 0.2995, x3 = 0.4047	14.14	8.83	5.91	4.2
x2 = 0.4124, x3 = 0.1068	20.57	12.7	8.57	6.09
x2 = 0.463, x3 = 0.2523	10.07	6.66	–	–
x2 = 0.4916, x3 = 0.4053	4.47	2.99	–	–
x2 = 0.5914, x3 = 0.1068	8.43	–	–	–
x2 = 0.7052, x3 = 0.1967	3.19	–	–	–

CC(=O)[O-].CC[n+]1ccn(C)c1 + CCS(=O)(=O)[O-].[NH4+]
101 kPa, x2 = 0
Conditions	electrical conductivity [S/m]	viscosity [mPa·s]
303.15 K	0.374	93.6
318.15 K	0.76	44.2

CCCO + CC[n+]1ccccc1.N#C[N-]C#N
Conditions	viscosity [mPa·s]
288.15 K, 100 kPa, x1 = 1	2.51

CCCO + CC[n+]1ccn(C)c1.COS(=O)(=O)[O-]
101 kPa, x2 = 0
Conditions	viscosity [mPa·s]
283.15 K	2.78
293.15 K	2.18
313.15 K	1.36
323.15 K	1.11

CCCC[N+](C)(CCCC)CCCC.N#C[N-]C#N + CC[n+]1ccn(C)c1.N#C[N-]C#N
viscosity [mPa·s], 101 kPa
Conditions	303.15 K	333.15 K	343.15 K	353.15 K
x2 = 0.2114	109.5	–	20.6	15.38
x2 = 0.3975	–	19.3	–	11.19
x2 = 0.6047	33	–	–	–

OCC(F)(F)F + CC[n+]1ccn(C)c1.N#C[N-]C#N
100 kPa, x2 = 0
Conditions	viscosity [mPa·s]
298.15 K	1.77
308.15 K	1.38

CCCCn1cc[n+](CCOCCOCC[n+]2ccn(CCCC)c2)c1.O=S(=O)([N-]S(=O)(=O)C(F)(F)F)C(F)(F)F.O=S(=O)([N-]S(=O)(=O)C(F)(F)F)C(F)(F)F + CC[n+]1ccn(C)c1.N#C[N-]C#N + O=S(=O)([N-]S(=O)(=O)C(F)(F)F)C(F)(F)F.[Li+]
100 kPa, x1 = 0.1442, x2 = 0.7526
Conditions	electrical conductivity [S/m]
298 K	0.677
303 K	0.795
313 K	1.05
323 K	1.39
333 K	1.71
343 K	2.08

CC[S+](CC)CCOCC[S+](CC)CC.O=S(=O)([N-]S(=O)(=O)C(F)(F)F)C(F)(F)F.O=S(=O)([N-]S(=O)(=O)C(F)(F)F)C(F)(F)F + CC[n+]1ccn(C)c1.N#C[N-]C#N + O=S(=O)([N-]S(=O)(=O)C(F)(F)F)C(F)(F)F.[Li+]
100 kPa, x1 = 0.1609, x2 = 0.7379
Conditions	electrical conductivity [S/m]
298 K	0.637
303 K	0.742
313 K	0.987
323 K	1.28
333 K	1.64
343 K	2

C[N+]1(CCOCCOCCOCC[N+]2(C)CCCC2)CCCC1.N#C[N-]C#N.N#C[N-]C#N + CC[n+]1ccn(C)c1.N#C[N-]C#N + O=S(=O)([N-]S(=O)(=O)C(F)(F)F)C(F)(F)F.[Li+]
100 kPa, x1 = 0.252, x2 = 0.6578
Conditions	electrical conductivity [S/m]
298 K	0.522
303 K	0.63
313 K	0.854
323 K	1.16
333 K	1.48
343 K	1.86

CCCO + CC[n+]1ccn(C)c1.N#C[S-]
101 kPa, x2 = 0
Conditions	viscosity [mPa·s]
283.15 K	2.78
293.15 K	2.18
303.15 K	1.72
313.15 K	1.36
323.15 K	1.11

CC[n+]1ccn(C)c1.CS(=O)(=O)[O-] + CC[n+]1ccn(C)c1.N#C[S-] + O
viscosity [mPa·s], 100 kPa
Conditions	298.15 K	323.15 K
x2 = 0, x1 = 1	166.9	46.66
x2 = 0.03875, x1 = 0.1179	5.47	2.895
x2 = 0.0437, x1 = 0.133	6.29	3.29
x2 = 0.04778, x1 = 0.1454	6.96	3.598
x2 = 0.04973, x1 = 0.05117	2.902	1.645
x2 = 0.07374, x1 = 0.07586	4.308	2.366
x2 = 0.08472, x1 = 0.2579	14.08	6.86
x2 = 0.09552, x1 = 0.09828	5.65	3.039
x2 = 0.132, x1 = 0.4018	27.86	12.33
x2 = 0.1688, x1 = 0.1737	10.72	5.46
x2 = 0.1857, x1 = 0.5652	56.4	21.34
x2 = 0.1882, x1 = 0.06242	5.9	3.31
x2 = 0.2473, x1 = 0.7527	102.6	32.99
x2 = 0.2641, x1 = 0.2717	19.62	9.31
x2 = 0.3704, x1 = 0.3811	35.52	15.09
x2 = 0.3722, x1 = 0.1235	12.81	6.61
x2 = 0.4929, x1 = 0.5071	63.5	23.49
x2 = 0.5588, x1 = 0.1854	23.25	10.99
x2 = 0.7509, x1 = 0.2491	38.43	16.41

CCCO + CC[n+]1ccn(CCOC)c1.N#C[S-]
100 kPa, x2 = 0
Conditions	viscosity [mPa·s]
288.15 K	2.49
293.15 K	2.2
298.15 K	1.95
303.15 K	1.732
308.15 K	1.545
313.15 K	1.382
318.15 K	1.24

CCCO + CC[n+]1ccn(CCOC)c1.O=S(=O)([O-])C(F)(F)F
101 kPa, x2 = 0
Conditions	viscosity [mPa·s]
288.15 K	2.475
293.15 K	2.185
298.15 K	1.937
303.15 K	1.723
308.15 K	1.537
313.15 K	1.377
318.15 K	1.235
